Assays:
Human recombinant SIRT2 = molecular target: T1, Human recombinant SIRT2 (Homo sapiens, UniProt Q8IXJ6); test: SIRT2 deacetylation assay (Fluor de Lys-SIRT2); type: biochemical; details: 25 μM Fluor de Lys-SIRT2, 25 μM NAD+, 20 minutes, 37° C.
T1 sequence (Q8IXJ6 1-389): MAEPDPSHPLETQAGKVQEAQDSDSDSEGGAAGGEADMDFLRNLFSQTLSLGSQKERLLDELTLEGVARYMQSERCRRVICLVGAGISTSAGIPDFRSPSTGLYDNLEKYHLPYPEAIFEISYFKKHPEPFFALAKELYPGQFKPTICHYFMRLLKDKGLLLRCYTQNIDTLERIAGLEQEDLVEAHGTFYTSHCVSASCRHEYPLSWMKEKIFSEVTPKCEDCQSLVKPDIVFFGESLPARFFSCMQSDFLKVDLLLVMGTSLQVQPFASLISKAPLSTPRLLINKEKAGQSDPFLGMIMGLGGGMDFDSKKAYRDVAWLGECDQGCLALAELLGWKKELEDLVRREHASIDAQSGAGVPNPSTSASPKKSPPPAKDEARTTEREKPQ
Text: Yeast Sir2 and human SIRT1 are very homologous and differ from human SIRT2 by the addition of an N-terminal domain that is absent in SIRT2. […] Thus, based on the difference in structure of SIRT1 and SIRT2, i.e., the absence of an N-terminal domain (see FIG. 8), it is believed that the N-terminal domain of SIRT1 and Sir2 is necessary for activation by the compounds described herein. In particular, it is likely that the activator compounds described herein interact with the N-terminal portion of sirtuins. The N-terminal portion of SIRT1 that is necessary for the action of the compounds is from about amino acid 1 to about amino acid 176, and that of Sir2 is from about amino acid 1 to about amino acid 175.

SIRT1 deacetylase = molecular target: T2, SIRT1 deacetylase (Homo sapiens, UniProt Q96EB6); test: High-throughput SIRT1 screening protocol (384 well); type: biochemical; details: 200 μM NAD+, 5 μM Fluor de Lys-SIRT1 substrate; roughly 50 μM
T2 construct: purchased BIOMOL
T2 sequence (Q96EB6 1-747): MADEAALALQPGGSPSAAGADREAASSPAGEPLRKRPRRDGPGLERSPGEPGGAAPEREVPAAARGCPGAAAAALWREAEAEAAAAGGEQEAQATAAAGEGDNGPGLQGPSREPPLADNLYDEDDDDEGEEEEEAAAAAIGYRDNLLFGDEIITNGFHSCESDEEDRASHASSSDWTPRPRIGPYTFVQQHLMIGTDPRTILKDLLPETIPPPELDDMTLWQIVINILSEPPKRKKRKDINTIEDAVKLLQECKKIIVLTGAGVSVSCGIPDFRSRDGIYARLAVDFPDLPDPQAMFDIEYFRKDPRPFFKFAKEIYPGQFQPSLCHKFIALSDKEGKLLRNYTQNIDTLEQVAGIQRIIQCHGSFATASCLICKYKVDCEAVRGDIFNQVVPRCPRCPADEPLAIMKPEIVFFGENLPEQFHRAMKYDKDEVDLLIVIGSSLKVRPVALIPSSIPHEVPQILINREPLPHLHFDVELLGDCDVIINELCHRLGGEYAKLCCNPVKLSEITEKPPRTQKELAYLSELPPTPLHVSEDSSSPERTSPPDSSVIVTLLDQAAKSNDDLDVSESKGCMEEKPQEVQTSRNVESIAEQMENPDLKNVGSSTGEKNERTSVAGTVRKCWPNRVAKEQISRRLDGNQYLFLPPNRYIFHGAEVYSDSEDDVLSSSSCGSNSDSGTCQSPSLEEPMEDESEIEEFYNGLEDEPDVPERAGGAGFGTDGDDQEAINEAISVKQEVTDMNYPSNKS
Experimental: The reaction mixture contains (final): 0.5 units/reaction SIRT1 deacetylase (BIOMOL); 200 μM NAD^+; 5 μM Fluor de Lys-SIRT1 substrate (BIOMOL); buffer (25 mM Tris/Cl, pH 8.0, 137 mM NaCl, 2.7 mM KCl, 1 mM MgCl2, and 1 mg/ml BSA). In addition, a reaction mixture containing no enzyme was made so that each well receiving compound has a corresponding “no enzyme control” well. Reactions were performed in black 384 well plates (NUNC) in a final volume of 25 μl/well.
The reactions were started by combining enzyme and substrate in a reaction mixture immediately prior to aliquoting in plates (or substrate only for “no enzyme control” plates). Mixture were aliquoted to plates using Biotek μFill (Biotek Instruments). Control mixtures were manually added to designated wells. A library compound was added at a desired concentration by pin transfer to both “with enzyme” and “no enzyme” plates. Compounds were added in at least triplicate (with enzyme reaction in duplicate and no enzyme controls) at a final concentration of roughly 50 μM. The plates were incubated at 37° C. for 30-60 minutes. Then 25 μl of 1× Developer II (BIOMOL) plus 2 mM nicotinamide were added to all wells to stop the reactions. The reactions were left for at least 30 minutes at 37° C. for the signal to develop. The plates were read in a microplate-reading fluorometer capable of excitation at a wavelength in the range of 350-380 nm and detection of emitted light in the range of 440-460 nm. A read time of 0.1 sec per well was used.

Structure (SMILES): Oc1ccc(/C=C/c2cc(O)cc(O)c2)cc1 [Resveratrol, 3,5,4′-Trihydroxy-trans-stilbene]
- effect of increasing concentrations on SIRT2 activity (Human recombinant SIRT2): decrease
- activation of SIRT1 (positive controls) (SIRT1 deacetylase): 2.2 fold
